Reference: patent US12325697B2 (Nimbus Clio, Inc., priority 2021, dated 2025)
pEC50, pIC50: −log10 of the molar value.

How the values were obtained:
[1] = target: Recombinant human Cbl-b (aa 36-427) (Homo sapiens (Human), UniProt Q13191); assay: Cbl-b Biochemical Assay (TR-FRET); conditions: read-out: TR-FRET hCbl-b IC50
In short: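 IC50 from 4-parameter fit of % inhibition (DMSO max, reference-inhibitor min), duplicate ten-point series. Compound preincubated with 6 nM Cbl-b, then Src-Zap70 (1-2.5 nM)/0.5 mM ATP reaction 60 min RT; EDTA quench with labelled UBE2D2-Ub and streptavidin-terbium, 60 min, HTRF at 520 nm.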

[2] = tested on: Jurkat (clone E6-1) cells, NFAT luciferase reporter; assay: Jurkat Reporter Assay (NFAT Luciferase); format: cell-based; conditions: Homo sapiens, anti-CD3 stimulation, 6 hr, read-out: Jurkat NFAT EC50
[3] = target: Recombinant human c-Cbl (aa 47-435) (Homo sapiens (Human), UniProt P22681); assay: c-Cbl Biochemical Assay (TR-FRET)
Sequence of Recombinant human c-Cbl (aa 47-435) (P22681 47-435): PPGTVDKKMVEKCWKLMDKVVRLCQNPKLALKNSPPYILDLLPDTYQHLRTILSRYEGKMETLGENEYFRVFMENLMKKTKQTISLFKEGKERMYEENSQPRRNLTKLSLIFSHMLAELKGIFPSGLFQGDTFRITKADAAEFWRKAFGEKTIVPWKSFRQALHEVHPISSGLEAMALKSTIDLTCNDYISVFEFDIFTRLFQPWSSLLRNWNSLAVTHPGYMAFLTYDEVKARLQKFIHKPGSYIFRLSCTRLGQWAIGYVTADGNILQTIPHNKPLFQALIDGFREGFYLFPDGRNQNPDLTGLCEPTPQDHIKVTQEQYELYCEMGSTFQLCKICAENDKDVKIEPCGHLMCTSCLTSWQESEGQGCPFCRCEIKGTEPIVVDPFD
In short: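 TR-FRET binding of UBE2D2-Ub-Bodipy (100 nM) to biotinylated c-Cbl (aa 47-435, 6 nM) via Streptavidin-Tb, measured after c-Cbl activation by Src-Zap70 with 0.5 mM ATP (60-90 min RT, 30 min compound preincubation). Ten-point half-log dilutions, 1% DMSO; IC50 by 4-parameter fit of normalized inhibition.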

Sequence of Recombinant human Cbl-b (aa 36-427) (Q13191 36-427): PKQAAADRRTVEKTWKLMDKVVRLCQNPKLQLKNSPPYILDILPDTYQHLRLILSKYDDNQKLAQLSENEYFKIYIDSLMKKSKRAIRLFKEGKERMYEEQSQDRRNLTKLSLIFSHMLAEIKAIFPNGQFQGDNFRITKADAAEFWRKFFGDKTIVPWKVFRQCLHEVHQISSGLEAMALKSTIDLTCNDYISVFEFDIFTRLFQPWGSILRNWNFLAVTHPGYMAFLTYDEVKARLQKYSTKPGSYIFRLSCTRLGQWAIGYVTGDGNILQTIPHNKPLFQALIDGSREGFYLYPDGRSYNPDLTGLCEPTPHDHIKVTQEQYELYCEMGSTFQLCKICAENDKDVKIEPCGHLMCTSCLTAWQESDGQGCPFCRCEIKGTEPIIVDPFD

Row | SMILES | pIC50 [1] | pEC50 [2] | pIC50 [3]
1 | CCNc1cc(-c2ccc(CO)cc2-c2nncn2C)cc(N2Cc3c(cccc3C(F)(F)F)C2=O)n1 [AFD-1, 2-[6-(ethylamino)-4-[4-(hydroxymethyl)-2-(4-methyl-1,2,4-triazol-3-yl)phenyl]pyridin-2-yl]-4-(trifluoromethyl)-3H-isoindol-1-one] | ≥ 6.70 | 4.30 to 5.00 | 
2 | Cn1cnnc1-c1ccccc1-c1cccc(N2Cc3c(cc(COC4CCOCC4)cc3C(F)(F)F)C2=O)c1 [BD-3, 2-(2′-(4-Methyl-4H-1,2,4-triazol-3-yl)-[1,1′-biphenyl]-3-yl)-6-(((tetrahydro-2H-pyran-4-yl)oxy)methyl)-4-(trifluoromethyl)isoindolin-1-one] | ≥ 6.70 | 5.00 to 6.00 | 
3 | CCNc1cc(-c2c(-c3nncn3C)cnn2C)cc(N2Cc3c(cc(CNCCOCCOCCOCCNC(=O)CCc4ccc5n4[B-](F)(F)[N+]4=C(c6ccc[nH]6)C=CC4=C5)cc3C(F)(F)F)C2=O)n1 [ACZ-5] | ≥ 6.70 | 4.30 to 5.00 | 
4 | CCNc1cc(-c2ccccc2-c2nncn2C)cc(N2Cc3c(cc(CN4CCC(F)(F)[C@H](C)C4)cc3C(F)(F)F)C2=O)n1 [AU-2, (R)-6-((4,4-Difluoro-3-methylpiperidin-1-yl)methyl)-2-(6-(ethylamino)-4-(2-(4-methyl-4H-1,2,4-triazol-3-yl)phenyl)pyridin-2-yl)-4-(trifluoromethyl)isoindolin-1-one] | ≥ 6.70 | 6.00 to 6.70 | 
5 | Cn1cnnc1-c1cc(C(N)=O)ccc1-c1cccc(N2Cc3c(cc(CO)cc3C(F)(F)F)C2=O)c1 [ADK-1, 3′-[6-(Hydroxymethyl)-1-oxo-4-(trifluoromethyl)-3H-isoindol-2-yl]-2-(4-methyl-1,2,4-triazol-3-yl)-[1,1′-biphenyl]-4-carboxamide] | 5.00 to 6.00 | 4.30 to 5.00 | 
6 | CCNc1cc(-c2ccccc2-c2nncn2C)cc(N2Cc3c(cc(CN4CC[C@@H](O)C4)cc3C(F)(F)F)C2=O)n1 [AT-1, (R)-2-(6-(Ethylamino)-4-(2-(4-methyl-4H-1,2,4-triazol-3-yl)phenyl)pyridin-2-yl)-6-((3-hydroxypyrrolidin-1-yl)methyl)-4-(trifluoromethyl)isoindolin-1-one] | ≥ 6.70 | 6.00 to 6.70 | 
7 | C[C@H](Cc1nncn1C)c1cc(Cl)nc(N2Cc3c(cccc3C(F)(F)F)C2=O)c1 [AHJ-11, (R)-2-(6-Chloro-4-(1-(4-methyl-4H-1,2,4-triazol-3-yl)propan-2-yl)pyridin-2-yl)-4-(trifluoromethyl)isoindolin-1-one] | 5.00 to 6.00 | 4.30 to 5.00 | 
8 | CCNc1cc(-c2cc(C#N)ccc2-c2nncn2C)cc(N2Cc3c(cccc3C(F)(F)F)C2=O)n1 [ADS-6, 3-[2-(Ethylamino)-6-[1-oxo-4-(trifluoromethyl)-3H-isoindol-2-yl]pyridin-4-yl]-4-(4-methyl-1,2,4-triazol-3-yl)benzonitrile] | ≥ 6.70 | 5.00 to 6.00 | 
9 | Cn1cnnc1-c1cc(C#N)ccc1-c1cc(C2CC2)nc(N2Cc3c(cccc3C(F)(F)F)C2=O)c1 [AEG-3, 4-{2-Cyclopropyl-6-[1-oxo-4-(trifluoromethyl)-3H-isoindol-2-yl]pyridin-4-yl}-3-(4-methyl-1,2,4-triazol-3-yl)benzonitrile] | ≥ 6.70 | 6.00 to 6.70 | 
10 | Cn1cnnc1-c1ccccc1-c1cc(N2Cc3c(cc(CO)cc3C(F)(F)F)C2=O)nc(N2Cc3c(cc(CO)cc3C(F)(F)F)C2=O)c1 [ACX-2, 6-(Hydroxymethyl)-2-{6-[6-(hydroxymethyl)-1-oxo-4-(trifluoromethyl)-3H-isoindol-2-yl]-4-[2-(4-methyl-1,2,4-triazol-3-yl)phenyl]pyridin-2-yl}-4-(trifluoromethyl)-3H-isoindol-1-one] | 4.30 to 5.00 | 4.30 to 5.00 | 
11 | CCNc1cc(-c2c(-c3nncn3C)cnn2C)cc(N2Cc3c(cc(CN(C)CC4(OC)CCC4)cc3C(F)(F)F)C2=O)n1 [AEK-3, 2-(6-(Ethylamino)-4-(1-methyl-4-(4-methyl-4H-1,2,4-triazol-3-yl)-1H-pyrazol-5-yl)pyridin-2-yl)-6-((((1-methoxycyclobutyl)methyl)(methyl)amino)methyl)-4-(trifluoromethyl)isoindolin-1-one] | ≥ 6.70 | 6.00 to 6.70 | 
12 | CCNc1cc(-c2ccc(OC)cc2-c2nncn2C)cc(N2Cc3c(cccc3C(F)(F)F)C2=O)n1 [AFB-8, 2-[6-(Ethylamino)-4-[4-methoxy-2-(4-methyl-1,2,4-triazol-3-yl)phenyl]pyridin-2-yl]-4-(trifluoromethyl)-3H-isoindol-1-one] | ≥ 6.70 | 6.00 to 6.70 | 
13 | CCNc1cc(-c2ccc(C#N)cc2-c2nncn2C)cc(N2Cc3c(cc(N4CCCC4)cc3C(F)(F)F)C2=O)n1 [AEP-2, 4-[2-(Ethylamino)-6-[1-oxo-6-(pyrrolidin-1-yl)-4-(trifluoromethyl)-3H-isoindol-2-yl]pyridin-4-yl]-3-(4-methyl-1,2,4-triazol-3-yl)benzonitrile] | 6.00 to 6.70 | 4.30 to 5.00 | 
14 | CN(Cc1cc2c(c(C(F)(F)F)c1)CN(c1cc(-c3ccc(C#N)cc3-c3nncn3C)cc(C3CC3)n1)C2=O)C(=O)OC(C)(C)C [AGY-3, tert-Butyl N-[(2-{4-[4-cyano-2-(4-methyl-1,2,4-triazol-3-yl)phenyl]-6-cyclopropylpyridin-2-yl}-3-oxo-7-(trifluoromethyl)-1H-isoindol-5-yl)methyl]-N-methylcarbamate] | ≥ 6.70 | 6.00 to 6.70 | 
15 | Cn1cnnc1-c1cc(C#N)ccc1-c1cccc(N2Cc3c(cc(CO)cc3C(F)(F)F)C2=O)c1 [ADG-3, 3′-[6-(Hydroxymethyl)-1-oxo-4-(trifluoromethyl)-3H-isoindol-2-yl]-2-(4-methyl-1,2,4-triazol-3-yl)-[1,1′-biphenyl]-4-carbonitrile] | ≥ 6.70 | 4.30 to 5.00 | 
16 | Cn1cnnc1-c1ccc(C#N)cc1-c1cccc(N2Cc3c(cc(CO)cc3C(F)(F)F)C2=O)c1 [ADM-6, 3′-[6-(Hydroxymethyl)-1-oxo-4-(trifluoromethyl)-3H-isoindol-2-yl]-6-(4-methyl-1,2,4-triazol-3-yl)-[1,1′-biphenyl]-3-carbonitrile] | 6.00 to 6.70 | 4.30 to 5.00 | 
17 | C[C@@H](Cc1nncn1C)c1cc(NS(C)(=O)=O)nc(N2Cc3c(cccc3C(F)(F)F)C2=O)c1 [AHL-8, N-[4-[(2S)-1-(4-Methyl-1,2,4-triazol-3-yl)propan-2-yl]-6-[1-oxo-4-(trifluoromethyl)-3H-isoindol-2-yl]pyridin-2-yl]methanesulfonamide] | 4.30 to 5.00 | 4.30 to 5.00 | 
18 | CCNc1cc(-c2ccc(C(=O)OC)cc2-c2nncn2C)cc(N2Cc3c(cccc3C(F)(F)F)C2=O)n1 [AFC-1, Methyl 4-[2-(ethylamino)-6-[1-oxo-4-(trifluoromethyl)-3H-isoindol-2-yl]pyridin-4-yl]-3-(4-methyl-1,2,4-triazol-3-yl) benzoate] | 5.00 to 6.00 | 4.30 to 5.00 | 
19 | CN1CCC(OCc2cc3c(c(C(F)(F)F)c2)CN(c2cccc(-c4ccccc4-c4nncn4C)c2)C3=O)CC1 [BC-4, 2-(2′-(4-Methyl-4H-1,2,4-triazol-3-yl)-[1,1′-biphenyl]-3-yl)-6-(((1-methylpiperidin-4-yl)oxy)methyl)-4-(trifluoromethyl)isoindolin-1-one] | 6.00 to 6.70 | 5.00 to 6.00 | 
20 | O=C1c2cc(CNCC3(O)CCC3)cc(C(F)(F)F)c2CN1c1ccccc1 [AX-3, 6-((((1-Hydroxycyclobutyl)methyl)amino)methyl)-2-phenyl-4-(trifluoromethyl)isoindolin-1-one] | 4.30 to 5.00 | 4.30 to 5.00 | 
21 | CCNc1cc(-c2c(-c3nncn3C)cnn2C)cc(N2Cc3c(cc(COC4CCN(C)CC4)cc3C(F)(F)F)C2=O)n1 [ADA-2, 2-[6-(Ethylamino)-4-[2-methyl-4-(4-methyl-1,2,4-triazol-3-yl)pyrazol-3-yl]pyridin-2-yl]-6-{[(1-methylpiperidin-4-yl)oxy]methyl}-4-(trifluoromethyl)-3H-isoindol-1-one] |  | 5.00 to 6.00 | 
22 | C[C@H](NCC1CC1)c1ccc2c(c1)C(=O)N(c1cc(-c3ccc(C#N)cc3-c3nncn3C)cc(C3CC3)n1)C2 [AJK-1, (S)-4-(2-Cyclopropyl-6-(6-(1-((cyclopropylmethyl)amino)ethyl)-1-oxoisoindolin-2-yl)pyridin-4-yl)-3-(4-methyl-4H-1,2,4-triazol-3-yl)benzonitrile] | ≥ 6.70 |  | ≥ 6.70
23 | CNCc1ccc2c(c1)C(=O)N(c1cc(-c3ccc(C#N)cc3-c3nncn3C)cc(C3CC3)n1)C2 [AIT-1, 4-(2-cyclopropyl-6-{6-[(methylamino)methyl]-1-oxo-3H-isoindol-2-yl}pyridin-4-yl)-3-(4-methyl-1,2,4-triazol-3-yl)benzonitrile] | ≥ 6.70 |  | ≥ 6.70
24 | C[C@H](NCC1CCC1)c1ccc2c(c1)C(=O)N(c1cc(-c3ccc(C#N)cc3-c3nncn3C)cc(C3CC3)n1)C2 [AKB-1, (S)-4-(2-(6-(1-((Cyclobutylmethyl)amino)ethyl)-1-oxoisoindolin-2-yl)-6-cyclopropylpyridin-4-yl)-3-(4-methyl-4H-1,2,4-triazol-3-yl)benzonitrile] | ≥ 6.70 |  | ≥ 6.70
25 | CN(Cc1cc(F)c2c(c1)C(=O)N(c1cc(-c3ccc(F)cc3-c3nncn3C)cc(C3CC3)n1)C2)CC1(O)CCC1 [AML-1, 2-{6-Cyclopropyl-4-[4-fluoro-2-(4-methyl-1,2,4-triazol-3-yl)phenyl]pyridin-2-yl}-4-fluoro-6-({[(1-hydroxycyclobutyl)methyl](methyl)amino}methyl)-3H-isoindol-1-one] | ≥ 6.70 |  | ≥ 6.70
